Literature values as cited in patent publication US12403129B2, “Isotope-enriched 3-amino-1-propanesulfonic acid derivatives for the treatment of cerebrovascular disease” (RISEN (SUZHOU) PHARMA TECH CO., LTD., priority 2021, dated 2025).

Assays:
[1] = produces three potential metabolites; major metabolite 2-carboxyethanesulfonic acid; cited from earlier work
[2] = biological target: interaction between PSD95 and nNOS (Homo sapiens, UniProt P29475+P78352); details: by blocking the interaction between PSD95 and nNOS; cited from earlier work
Chain of interaction between PSD95 and nNOS (P78352 whole entry): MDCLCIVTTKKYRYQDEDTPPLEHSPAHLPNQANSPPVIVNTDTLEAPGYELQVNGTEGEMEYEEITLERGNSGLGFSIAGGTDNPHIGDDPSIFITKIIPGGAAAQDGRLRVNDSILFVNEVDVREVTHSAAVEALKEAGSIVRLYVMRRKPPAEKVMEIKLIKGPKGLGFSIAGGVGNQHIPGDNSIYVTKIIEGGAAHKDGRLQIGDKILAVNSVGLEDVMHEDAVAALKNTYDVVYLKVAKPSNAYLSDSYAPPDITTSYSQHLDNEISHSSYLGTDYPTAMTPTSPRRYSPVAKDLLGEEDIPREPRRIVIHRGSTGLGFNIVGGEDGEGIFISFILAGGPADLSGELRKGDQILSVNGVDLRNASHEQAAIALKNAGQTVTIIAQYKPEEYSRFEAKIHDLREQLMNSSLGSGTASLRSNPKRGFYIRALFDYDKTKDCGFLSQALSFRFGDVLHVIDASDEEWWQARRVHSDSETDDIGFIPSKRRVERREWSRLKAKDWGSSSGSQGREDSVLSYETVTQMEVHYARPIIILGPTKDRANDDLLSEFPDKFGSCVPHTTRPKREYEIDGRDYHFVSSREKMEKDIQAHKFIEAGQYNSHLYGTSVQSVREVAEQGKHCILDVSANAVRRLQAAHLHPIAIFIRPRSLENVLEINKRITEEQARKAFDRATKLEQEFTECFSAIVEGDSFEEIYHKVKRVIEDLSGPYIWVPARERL
Chain of interaction between PSD95 and nNOS (P29475 whole entry): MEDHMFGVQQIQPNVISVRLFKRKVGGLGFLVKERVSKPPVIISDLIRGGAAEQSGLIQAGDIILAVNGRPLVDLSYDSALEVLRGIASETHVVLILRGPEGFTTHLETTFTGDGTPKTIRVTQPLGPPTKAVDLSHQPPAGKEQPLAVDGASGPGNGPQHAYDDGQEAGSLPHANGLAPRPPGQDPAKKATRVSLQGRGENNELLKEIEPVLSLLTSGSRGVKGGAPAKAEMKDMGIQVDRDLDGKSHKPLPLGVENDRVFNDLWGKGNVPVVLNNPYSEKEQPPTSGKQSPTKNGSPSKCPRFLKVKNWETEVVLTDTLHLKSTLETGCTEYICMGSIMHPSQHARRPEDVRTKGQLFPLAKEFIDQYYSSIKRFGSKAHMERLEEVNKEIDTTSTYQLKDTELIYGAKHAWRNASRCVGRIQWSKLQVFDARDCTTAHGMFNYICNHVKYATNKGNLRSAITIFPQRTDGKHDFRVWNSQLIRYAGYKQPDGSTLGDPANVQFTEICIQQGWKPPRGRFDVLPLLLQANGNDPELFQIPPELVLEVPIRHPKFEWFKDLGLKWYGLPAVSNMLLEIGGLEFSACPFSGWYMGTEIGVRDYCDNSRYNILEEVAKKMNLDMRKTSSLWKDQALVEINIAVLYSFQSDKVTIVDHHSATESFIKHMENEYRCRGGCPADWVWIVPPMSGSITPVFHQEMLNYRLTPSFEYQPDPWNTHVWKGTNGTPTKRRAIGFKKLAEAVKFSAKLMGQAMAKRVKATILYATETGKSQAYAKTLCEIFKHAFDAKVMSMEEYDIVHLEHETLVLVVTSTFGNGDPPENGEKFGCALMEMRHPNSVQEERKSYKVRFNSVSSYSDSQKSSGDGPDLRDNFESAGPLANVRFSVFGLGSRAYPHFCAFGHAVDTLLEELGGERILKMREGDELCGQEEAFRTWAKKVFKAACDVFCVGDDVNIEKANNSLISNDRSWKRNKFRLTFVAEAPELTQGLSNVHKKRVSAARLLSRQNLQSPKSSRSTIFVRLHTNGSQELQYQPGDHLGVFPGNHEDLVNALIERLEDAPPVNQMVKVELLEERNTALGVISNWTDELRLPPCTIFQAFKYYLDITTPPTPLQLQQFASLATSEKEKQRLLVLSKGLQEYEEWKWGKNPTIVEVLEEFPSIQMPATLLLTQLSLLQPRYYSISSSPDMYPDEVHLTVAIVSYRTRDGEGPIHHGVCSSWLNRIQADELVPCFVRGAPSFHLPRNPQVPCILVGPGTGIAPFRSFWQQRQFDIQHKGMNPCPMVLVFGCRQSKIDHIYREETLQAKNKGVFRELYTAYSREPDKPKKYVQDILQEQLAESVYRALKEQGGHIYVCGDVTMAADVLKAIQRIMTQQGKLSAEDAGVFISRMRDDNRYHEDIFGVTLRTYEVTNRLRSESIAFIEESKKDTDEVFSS

Structure (SMILES): NCCCS(=O)(=O)O [Tramiprosate, 3-amino-1-propanesulfonic acid]
- metabolism in vivo [1]: extensively metabolized
- protection of neurons from ischemic stroke [2]: can protect neurons from ischemic stroke
